# Source: ChEMBL document CHEMBL1150221, “Isolation and structure determination of nostocyclopeptides A1 and A2 from the terrestrial cyanobacterium Nostoc sp. ATCC53789” (J Nat Prod, 2001)
# Active and inactive are the calls of the source. The calls are words filed in the database; no cut-off is given here.
# Tests used:
# KB = experiment: Cytotoxicity against human KB cells; type: functional, cell-based
# LoVo = experiment: Cytotoxicity against human LoVo cells; type: functional, cell-based
# Candida albicans = experiment: Antifungal activity against Candida albicans at 25 ug/disk; type: functional, organism-based
# Pseudomonas aeruginosa = experiment: […] activity against Pseudomonas aeruginosa at 25 ug/disk; type: functional, organism-based
# [1] = system: Mycobacterium tuberculosis; experiment: […] activity against Mycobacterium tuberculosis 25177 at 25 ug/disk; type: functional, organism-based
# [2] = system: Mycobacterium tuberculosis; experiment: […] activity against Mycobacterium tuberculosis 35818 at 25 ug/disk; type: functional, organism-based
# [3] = Inhibition of protease
# [4] = Inhibition of trypsin
# [5] = Inhibition of chymotrypsin
# Plasminogen = Plasminogen (Homo sapiens, UniProt P00747); experiment: Inhibition of plasmin
# Sequence of Plasminogen (P00747 97-580 limits assumed): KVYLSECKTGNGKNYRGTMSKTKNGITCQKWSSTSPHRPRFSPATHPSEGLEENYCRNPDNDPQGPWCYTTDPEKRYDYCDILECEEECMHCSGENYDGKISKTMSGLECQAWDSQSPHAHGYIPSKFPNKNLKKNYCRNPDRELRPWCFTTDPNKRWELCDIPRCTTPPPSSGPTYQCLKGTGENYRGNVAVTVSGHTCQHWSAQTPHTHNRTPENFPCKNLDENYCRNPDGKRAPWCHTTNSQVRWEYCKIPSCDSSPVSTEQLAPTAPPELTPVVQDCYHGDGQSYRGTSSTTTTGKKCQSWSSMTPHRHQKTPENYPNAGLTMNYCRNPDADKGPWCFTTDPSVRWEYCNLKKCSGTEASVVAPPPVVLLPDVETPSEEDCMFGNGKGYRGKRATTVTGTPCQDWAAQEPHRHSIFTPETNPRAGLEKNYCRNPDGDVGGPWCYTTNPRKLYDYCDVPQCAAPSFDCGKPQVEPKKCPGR
# Sequence of Plasminogen (P00747 581-810 limits assumed): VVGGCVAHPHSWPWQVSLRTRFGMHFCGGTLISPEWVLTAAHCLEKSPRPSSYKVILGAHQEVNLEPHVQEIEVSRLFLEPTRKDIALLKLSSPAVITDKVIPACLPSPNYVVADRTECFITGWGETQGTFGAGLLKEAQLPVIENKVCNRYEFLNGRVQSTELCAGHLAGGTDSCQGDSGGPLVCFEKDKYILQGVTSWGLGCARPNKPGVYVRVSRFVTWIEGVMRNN
# [6] = Inhibition of elastase
# Papain = target: T1, Papain (Carica papaya, UniProt P00784); experiment: Inhibition of papaya papain
# T1 sequence (P00784 whole entry): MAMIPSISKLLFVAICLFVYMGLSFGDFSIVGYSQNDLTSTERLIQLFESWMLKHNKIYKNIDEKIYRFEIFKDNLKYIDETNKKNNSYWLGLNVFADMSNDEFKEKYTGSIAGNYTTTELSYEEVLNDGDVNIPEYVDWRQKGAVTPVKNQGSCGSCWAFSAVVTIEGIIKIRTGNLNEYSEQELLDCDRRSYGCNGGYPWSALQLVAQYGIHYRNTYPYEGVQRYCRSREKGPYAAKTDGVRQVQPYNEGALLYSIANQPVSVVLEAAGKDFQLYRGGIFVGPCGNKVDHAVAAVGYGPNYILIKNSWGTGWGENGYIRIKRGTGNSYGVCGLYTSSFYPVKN
# Prothrombin = Prothrombin (Homo sapiens, UniProt P00734); experiment: Inhibition of thrombin
Structure (SMILES),IC50 (KB),IC50 (LoVo),Activity (Candida albicans),Activity (Pseudomonas aeruginosa),Activity [1],Activity [2],Activity [3],IC50 [4],IC50 [5],IC50 (Plasminogen),IC50 [6],IC50 (Papain),IC50 (Prothrombin)
CC[C@H](C)[C@@H]1NC(=O)[C@@H](CCC(N)=O)NC(=O)CNC(=O)[C@H](Cc2ccc(O)cc2)/N=C/[C@H](CC(C)C)NC(=O)[C@@H]2C[C@H](C)CN2C(=O)[C@H](CO)NC1=O [NOSTOCYCLOPEPTIDE A1],1 µM,1 µM,inactive,inactive,inactive,inactive,inactive,> 50 µM,< 25 µM,> 50 µM,< 25 µM,< 25 µM,> 50 µM
CC[C@H](C)[C@@H]1NC(=O)[C@@H](CCC(N)=O)NC(=O)CNC(=O)[C@H](Cc2ccc(O)cc2)/N=C/[C@H](Cc2ccccc2)NC(=O)[C@@H]2C[C@H](C)CN2C(=O)[C@H](CO)NC1=O [NOSTOCYCLOPEPTIDE A2],1 µM,1 µM,inactive,inactive,inactive,inactive,inactive,> 50 µM,< 25 µM,> 50 µM,< 25 µM,< 25 µM,> 50 µM
